Data as given in PubChem BioAssay (NCI).
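Tested at 5 concentrations; 48 h exposure; 96-well plates; endpoints linearly interpolated, else capped at highest concentration. TGI marks complete inhibition of growth.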

Legend:
Assay in all cases: growth of human tumour cells (NCI), 48 h
[1] = test system: 786-0 renal
[2] = test system: A498 renal
[3] = test system: A549 NSCLC
[4] = test system: ACHN renal
[5] = test system: BT-549 breast
[6] = test system: CAKI-1 renal
[7] = test system: CCRF-CEM leukemia
[8] = test system: COLO 205 colon
[9] = test system: DU-145 prostate
[10] = test system: EKVX NSCLC
[11] = test system: HCC-2998 colon
[12] = test system: HCT-116 colon
[13] = test system: HCT-15 colon
[14] = test system: HOP-62 NSCLC
[15] = test system: HOP-92 NSCLC
[16] = test system: HS 578T breast
[17] = test system: HT29 colon
[18] = test system: IGROV1 ovarian
[19] = test system: K-562 leukemia
[20] = test system: KM12 colon
[21] = test system: LOX IMVI melanoma
[22] = test system: M14 melanoma
[23] = test system: MALME-3M melanoma
[24] = test system: MCF7 breast
[25] = test system: MDA-MB-231 breast
[26] = test system: MDA-MB-435
[27] = test system: MDA-N
[28] = test system: MOLT-4 leukemia
[29] = test system: NCI-H226 lung
[30] = test system: NCI-H23 lung
[31] = test system: NCI-H460 lung
[32] = test system: NCI-H522 lung
[33] = test system: NCI/ADR-RES ovarian
[34] = test system: OVCAR-3 ovarian
[35] = test system: OVCAR-4 ovarian
[36] = test system: OVCAR-5 ovarian
[37] = test system: OVCAR-8 ovarian
[38] = test system: PC-3 prostate
[39] = test system: RPMI-8226 leukemia
[40] = test system: RXF 393 renal
[41] = test system: SF-268 CNS
[42] = test system: SF-295 CNS
[43] = test system: SF-539 CNS
[44] = test system: SK-MEL-2 melanoma
[45] = test system: SK-MEL-28 melanoma
[46] = test system: SK-MEL-5 melanoma
[47] = test system: SK-OV-3 ovarian
[48] = test system: SN12C renal
[49] = test system: SNB-19 CNS
[50] = test system: SNB-75 CNS
[51] = test system: SW-620 colon
[52] = test system: T-47D breast
[53] = test system: TK-10 renal
[54] = test system: U251 CNS
[55] = test system: UACC-257 melanoma
[56] = test system: UACC-62 melanoma
[57] = test system: UO-31 renal
[58] = test system: HL-60(TB) leukemia
[59] = test system: SR leukemia

Measured: TGI

CC(NC(=O)C(N)CC(=O)O)NC(=O)N1CCCC1 (configuration not stated)
not listed: [58] | [59]
> 100 µM: all other assays above

COC(=O)c1scc(N)c1-n1ccc(=O)[nH]c1=O
not listed: [14] | [34] | [42] | [47]
> 100 µM: all other assays above
